What was measured:
Test in all cases: Kinobeads competition binding, HL60 cell lysate
Set-up in all cases: endogenous in cells
Conditions in all cases: 10 μM free compound
PHKg2 = target: T1, PHKg2 (Homo sapiens, UniProt P15735)
T1 sequence (P15735 1-406): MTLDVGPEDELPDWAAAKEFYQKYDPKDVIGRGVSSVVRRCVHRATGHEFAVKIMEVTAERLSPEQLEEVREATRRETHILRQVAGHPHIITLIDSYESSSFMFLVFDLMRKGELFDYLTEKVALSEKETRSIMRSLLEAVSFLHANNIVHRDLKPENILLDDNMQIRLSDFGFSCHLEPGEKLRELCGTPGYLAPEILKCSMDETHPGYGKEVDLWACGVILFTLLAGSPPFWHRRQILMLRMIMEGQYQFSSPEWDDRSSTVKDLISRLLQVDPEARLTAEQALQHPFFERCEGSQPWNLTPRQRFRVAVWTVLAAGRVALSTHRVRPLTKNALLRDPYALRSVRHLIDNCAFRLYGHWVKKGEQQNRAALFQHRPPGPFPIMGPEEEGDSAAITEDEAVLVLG
Protocol: (§1) To one aliquot of cell lysate 10 μM of the free compound (FIG. 3, CZC31326) was added and allowed to bind to proteins in the lysate. Then the affinity matrix with the immobilized compound (Example 1) was added to capture proteins that were not interacting with the previously added free compound. Beads were separated from the lysate and bead bound proteins were eluted in SDS sample buffer and subsequently separated by SDS-Polyacrylamide gel electrophoresis (FIG. 4). Suitable gel bands were cut out and subjected to in-gel proteolytic digestion with trypsin. The second lysate aliquot was processed identically, however no free compound was added (DMSO solvent control). Peptides originating from samples 1 and 2 were labeled with iTRAQ reagents (iTRAQ 114 and iTRAQ 117) and the combined samples were analyzed with a nano-flow liquid chromatography system coupled online to a tandem mass spectrometer (LC-MS/MS) experiment followed by iTRAQ reporter ion quantification in the MS/MS spectra (Ross et al., 2004. Mol. Cell. Proteomics 3(12):1154-1169). Further experimental protocols can be found in WO2006/134056 and a previous publication (Bantscheff et al., 2007. Nature Biotechnology 25, 1035-1044). Sepharose-beads with the immobilized compound (100 μl beads per pull-down experiment) were equilibrated in lysis buffer and incubated with a cell lysate sample containing 50 mg of protein on an end-over-end shaker (Roto Shake Genie, Scientific Industries Inc.) for 2 hours at 4° C. Beads were collected, transferred to Mobicol-columns (MoBiTech 10055) and washed with 10 ml lysis buffer containing 0.4% NP40 detergent, followed by 5 ml lysis buffer containing 0.2% detergent. To elute bound proteins, 60 μl 2×SDS sample buffer was added to the column. The column was incubated for 30 minutes at 50° C. and the eluate was transferred to a siliconized microfuge tube by centrifugation. Proteins were then alkylated with 108 mM iodoacetamid. Proteins were then separated by SDS-Polyacrylamide electrophoresis (SDS-PAGE). The peptide extracts of samples treated with 10 μM of free compound (CZC31326) and the solvent control (0.5% DMSO) were treated with different variants of the isobaric tagging reagent (iTRAQ Reagents Multiplex Kit, part number 4352135, Applied Biosystems, Foster City, Calif., USA). The iTRAQ reagents are a set of multiplexed, amine-specific, stable isotope reagents that can label peptides on amino groups in up to four different biological samples enabling simultaneous identification and quantitation of peptides. The iTRAQ reagents were used according to instructions provided by the manufacturer. The samples were resuspended in 10 μl 50 mM TEAB solution, pH 8.5 and 10 μl ethanol were added. The iTRAQ reagent was dissolved in 120 μl ethanol and 10 μl of reagent solution were added to the sample. The labeling reaction was performed at room temperature for one hour on a horizontal shaker and stopped by adding 5 μl of 100 mM TEAB and 100 mM glycine in water. The two labeled sampled were then combined, dried in a vacuum centrifuge and resuspended in 10 μl of 0.1% formic acid in water. Relative protein quantitation was performed using peak areas of iTRAQ reporter ion signals essentially as described in an earlier publication (Bantscheff et al., 2007. Nature Biotechnology 25, 1035-1044).

IKKe = target: T2, IKKe (Homo sapiens, UniProt Q14164)
T2 sequence (Q14164 1-716): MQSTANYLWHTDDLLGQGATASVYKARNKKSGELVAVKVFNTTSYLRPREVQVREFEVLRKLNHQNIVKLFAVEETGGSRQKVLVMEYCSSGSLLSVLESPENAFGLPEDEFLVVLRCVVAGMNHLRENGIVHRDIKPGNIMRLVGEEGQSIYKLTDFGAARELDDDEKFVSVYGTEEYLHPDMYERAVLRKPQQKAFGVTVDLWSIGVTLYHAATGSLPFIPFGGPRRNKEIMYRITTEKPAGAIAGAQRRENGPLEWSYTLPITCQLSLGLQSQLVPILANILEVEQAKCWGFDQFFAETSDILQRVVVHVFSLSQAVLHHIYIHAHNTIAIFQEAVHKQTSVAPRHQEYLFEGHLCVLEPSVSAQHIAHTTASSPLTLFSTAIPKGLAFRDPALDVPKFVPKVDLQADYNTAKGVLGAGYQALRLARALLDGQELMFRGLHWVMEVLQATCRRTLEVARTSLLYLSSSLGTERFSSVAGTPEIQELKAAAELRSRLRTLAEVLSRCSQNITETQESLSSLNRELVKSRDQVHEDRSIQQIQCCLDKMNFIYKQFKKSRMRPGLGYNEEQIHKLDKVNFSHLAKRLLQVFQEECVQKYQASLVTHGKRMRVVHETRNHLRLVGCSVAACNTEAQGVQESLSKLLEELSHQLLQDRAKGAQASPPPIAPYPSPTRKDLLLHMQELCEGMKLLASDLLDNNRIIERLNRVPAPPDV
Protocol: as §1

PKCa = PKCa (Homo sapiens, UniProt P17252)
Protocol: as §1

CDC2 = CDC2 (Homo sapiens, UniProt P06493)
Protocol: as §1

IRE1 = IRE1 (Homo sapiens, UniProt O75460)
Protocol: as §1

Erk2 = Erk2 (Homo sapiens, UniProt P28482)
Protocol: as §1

Sequence of CDC2 (P06493 whole entry): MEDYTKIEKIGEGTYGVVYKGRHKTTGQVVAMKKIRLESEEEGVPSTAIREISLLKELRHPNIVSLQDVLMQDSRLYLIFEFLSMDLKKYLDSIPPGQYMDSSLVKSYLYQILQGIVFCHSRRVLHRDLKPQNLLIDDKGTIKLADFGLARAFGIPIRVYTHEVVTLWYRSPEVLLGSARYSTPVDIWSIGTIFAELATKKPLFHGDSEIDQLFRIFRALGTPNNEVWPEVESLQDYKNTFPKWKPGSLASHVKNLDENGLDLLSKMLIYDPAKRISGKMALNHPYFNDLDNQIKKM
Sequence of IRE1 (O75460 19-977): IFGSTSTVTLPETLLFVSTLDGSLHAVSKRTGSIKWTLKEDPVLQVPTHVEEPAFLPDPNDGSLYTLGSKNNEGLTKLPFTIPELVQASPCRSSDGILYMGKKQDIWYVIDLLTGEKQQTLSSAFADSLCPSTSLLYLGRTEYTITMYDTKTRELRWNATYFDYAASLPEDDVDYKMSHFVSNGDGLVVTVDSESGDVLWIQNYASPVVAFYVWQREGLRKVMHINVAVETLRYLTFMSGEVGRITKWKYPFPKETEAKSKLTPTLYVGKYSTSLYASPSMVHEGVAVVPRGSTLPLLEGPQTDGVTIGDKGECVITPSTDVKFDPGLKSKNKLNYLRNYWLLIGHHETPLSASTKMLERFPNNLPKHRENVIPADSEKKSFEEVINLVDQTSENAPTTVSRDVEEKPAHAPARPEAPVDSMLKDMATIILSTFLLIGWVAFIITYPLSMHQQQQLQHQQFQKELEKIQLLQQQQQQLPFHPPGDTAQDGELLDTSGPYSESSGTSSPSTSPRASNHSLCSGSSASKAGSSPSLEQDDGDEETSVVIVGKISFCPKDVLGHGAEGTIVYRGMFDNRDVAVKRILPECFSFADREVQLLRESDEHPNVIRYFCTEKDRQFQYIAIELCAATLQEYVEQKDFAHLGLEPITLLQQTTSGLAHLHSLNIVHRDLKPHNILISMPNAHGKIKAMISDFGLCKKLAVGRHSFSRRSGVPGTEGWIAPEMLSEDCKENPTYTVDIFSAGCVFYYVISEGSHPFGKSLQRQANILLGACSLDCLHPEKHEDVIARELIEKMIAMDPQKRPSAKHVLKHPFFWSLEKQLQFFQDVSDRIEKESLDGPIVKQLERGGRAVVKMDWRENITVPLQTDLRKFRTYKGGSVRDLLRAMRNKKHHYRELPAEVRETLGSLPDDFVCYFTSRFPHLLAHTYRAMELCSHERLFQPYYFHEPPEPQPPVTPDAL
Sequence of Erk2 (P28482 whole entry): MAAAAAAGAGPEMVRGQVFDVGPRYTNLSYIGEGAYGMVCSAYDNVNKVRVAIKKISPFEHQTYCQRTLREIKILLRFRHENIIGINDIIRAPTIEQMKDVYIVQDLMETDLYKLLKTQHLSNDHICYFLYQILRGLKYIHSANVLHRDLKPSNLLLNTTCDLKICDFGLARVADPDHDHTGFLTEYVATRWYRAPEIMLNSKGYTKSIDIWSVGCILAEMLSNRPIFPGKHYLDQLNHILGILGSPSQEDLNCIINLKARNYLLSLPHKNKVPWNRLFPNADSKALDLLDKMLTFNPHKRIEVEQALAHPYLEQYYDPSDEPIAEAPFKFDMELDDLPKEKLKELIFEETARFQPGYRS

- inhibition at 10 µM (PHKg2): 96.6%
- inhibition at 10 µM (IKKe): 91.4%
- inhibition at 10 µM (PKCa): 96.2%
- inhibition at 10 µM (CDC2): 93.1%
- inhibition at 10 µM (IRE1): 95.1%
- inhibition at 10 µM (Erk2): 75.8%
SMILES: CS(=O)(=O)Nc1ccccc1Nc1nc(Nc2cccc(OCCN)c2)ncc1Cl [CZC31326, N-(2-(2-(3-(2-aminoethoxy)phenylamino)-5-chloropyrimidin-4-ylamino)phenyl)methanesulfonamide]

— US20120270237A9, “METHODS FOR THE IDENTIFICATION OF KINASE INTERACTING MOLECULES AND FOR THE PURIFICATION OF KINASE PROTEINS” (Cellzone AG, priority 2009, published 2012)
